Experimental data: patent US7691901B2, “Carotenoid analogs or derivatives for the inhibition and amelioration of inflammation” (Cardax Pharmaceuticals Inc., priority 2004, dated 2010)

System: lipid peroxidation products
Test: Thioglycollate/Zymosan-induced peritonitis model: lipid oxidation products in peritoneal lavage by electrospray ionization tandem mass spectrometry
Assay type: in vivo, mice
Procedure: Thioglycollate/Zymosan—Induced Peritonitis Model: Wild-type mice were administered either 500 mg/kg body weight of disodium disuccinate astaxanthin (ddAst/Cardax™) in an oil emulsion vehicle, or normal saline (NS) as a negative control, by oral gavage at 24 hours intervals beginning 7 days prior to the induction of peritonitis. Peritonitis was induced experimentally as follows: mice were injected intraperitoneally with 1 ml of 4% by weight thioglycollate (Tg) broth, to induce the recruitment of proinflammatory cells to the peritoneum. Either 16 hours or 72 hours after recruitment, approximately half of the mice were injected intraperitoneally with 250 mg/kg body weight of zymosan (Z) for a further 4 hours. The mice not receiving zymosan underwent no further treatment. Peritoneal lavage was performed in control animals or animals treated with (ddAst) 16 hours post Tg injection, or 20 h following the combination of both Tg injection (16 hours) followed by Z injection (4 hours), as indicated (Tg/Z). Peritoneal lavages were performed with phosphate-buffered saline containing antioxidant (0.1 mM butylated hydroxytoluene (BHT)) and 2 mM of the metal chelator diethylenetriamine pentaacetic acid (DTPA) according to established practices in the art. The lavage suspensions were transferred to screw-capped tubes under an argon atmosphere, and immediately centrifuged at 1000 rpm in a table top microcentrifuge for 10 min at 4° C. to remove whole cells and debris. All analyses of lipid peroxidation products was performed on cell-free lavage supernatants. Cell pellets were resuspended in phosphate-buffered saline containing 0.1 mM BHT and 0.1 mM DTPA, and differential cell counts (macrophages, monocytes, eosinophils, lymphocytes, neutrophils, and erythrocytes) were performed on cytospun preparations of isolated cells according to established procedures in the art.
Electrospray ionization tandem mass spectrometry was used to simultaneously quantify individual molecular species of HETEs, HPETEs, the prostaglandin PGF2α, F2-isoprostanoids, hydroxy- and hydroperoxy-octadecadienoic acids (H(P)ODEs), and their precursors, arachidonic acid (AA) and linoleic acid (LA). Additionally, the molar ratios of o-tyrosine (oY/F). were measured.

[1] = 72 Hour Thioglycollate/4 Hour Zymosan, 500 mg/kg oral gavage, P-VALUE 0.772 NP
[2] = 72 Hour Thioglycollate/4 Hour Zymosan, 500 mg/kg oral gavage, P-VALUE 0.862 NP
[3] = 72 Hour Thioglycollate/4 Hour Zymosan
[4] = 72 Hour Thioglycollate, 500 mg/kg oral gavage, P-VALUE 0.117
[5] = 72 Hour Thioglycollate, 500 mg/kg oral gavage, P-VALUE 0.275
[6] = 72 Hour Thioglycollate, 500 mg/kg oral gavage, P-VALUE 0.325 NP
[7] = 72 Hour Thioglycollate, 500 mg/kg oral gavage, P-VALUE 0.349
[8] = 72 Hour Thioglycollate, 500 mg/kg oral gavage, P-VALUE 0.393
[9] = 72 Hour Thioglycollate, 500 mg/kg oral gavage, P-VALUE 0.512
[10] = 72 Hour Thioglycollate, 500 mg/kg oral gavage, P-VALUE 0.524 NP
[11] = 72 Hour Thioglycollate, 500 mg/kg oral gavage, P-VALUE 0.542
[12] = 72 Hour Thioglycollate, 500 mg/kg oral gavage, P-VALUE 0.603 NP
[13] = 72 Hour Thioglycollate, 500 mg/kg oral gavage, P-VALUE 0.726
[14] = 72 Hour Thioglycollate, 500 mg/kg oral gavage, P-VALUE 0.741
[15] = 72 Hour Thioglycollate, 500 mg/kg oral gavage, P-VALUE 0.793
[16] = 72 Hour Thioglycollate, 500 mg/kg oral gavage, P-VALUE 0.862 NP
[17] = 72 Hour Thioglycollate, 500 mg/kg oral gavage, P-VALUE 0.968
[18] = 16 hours Tg/4 hour Z, 500 mg/kg oral gavage
[19] = 16 hours Tg, 500 mg/kg oral gavage
[20] = 72 hours Tg/4 hour Z, 500 mg/kg oral gavage
[21] = Baseline, 500 mg/kg oral gavage, P-VALUE 0.081 NP
[22] = Baseline, 500 mg/kg oral gavage, P-VALUE 0.158 NP
[23] = Baseline, 500 mg/kg oral gavage, P-VALUE 0.271
[24] = Baseline, 500 mg/kg oral gavage, P-VALUE 0.290
[25] = Baseline, 500 mg/kg oral gavage, P-VALUE 0.298 NP
[26] = Baseline, 500 mg/kg oral gavage, P-VALUE 0.302
[27] = Baseline, 500 mg/kg oral gavage, P-VALUE 0.391
[28] = Baseline, 500 mg/kg oral gavage, P-VALUE 0.418
[29] = Baseline, 500 mg/kg oral gavage, P-VALUE 0.471 NP
[30] = Baseline, 500 mg/kg oral gavage, P-VALUE 0.810 NP
[31] = Baseline, 500 mg/kg oral gavage, P-VALUE 0.843
[32] = Baseline, 500 mg/kg oral gavage, P-VALUE 0.920
[33] = Baseline, 500 mg/kg oral gavage, P-VALUE 1.000 NP

CC1=C(/C=C/C(C)=C/C=C/C(C)=C/C=C/C=C(C)/C=C/C=C(C)/C=C/C2=C(C)C(=O)C(OC(=O)CCC(=O)O)CC2(C)C)C(C)(C)CC(OC(=O)CCC(=O)O)C1=O (stereo not shown) [Cardax, disodium disuccinate astaxanthin]
9-HODE MEAN [1]: 4.747 pmol | 9-HODE MEDIAN [1]: 3.683 pmol | 11-HETE MEAN [2]: 0.837 pmol | 11-HETE MEDIAN [2]: 0.703 pmol | 5-oxo-ETE (pmol), MEAN [3]: 0.148 pmol | 5-oxo-ETE (ratio), MEAN [3]: 0.063 ratio | 8-iso-F2a (pmol), MEAN [3]: 0.057 pmol | 8-iso-F2a/AA (ratio), MEAN [3]: 0.017 ratio | 5-oxo-ETE (pmol), MEDIAN [3]: 0.116 pmol | 5-oxo-ETE (ratio), MEDIAN [3]: 0.048 ratio | 8-iso-F2a (pmol), MEDIAN [3]: 0.037 pmol | 8-iso-F2a/AA (ratio), MEDIAN [3]: 0.011 ratio | 9-HETE MEAN [4]: 0.274 pmol | 9-HETE MEDIAN [4]: 0.299 pmol | 9-HODE/LA (ratio) MEAN [5]: 0.180 | 9-HODE/LA (ratio) MEDIAN [5]: 0.109 | 5-HETE MEAN [6]: 0.129 pmol | 5-HETE MEDIAN [6]: 0.082 pmol | 9-HODE MEAN [7]: 1.831 pmol | 9-HODE MEDIAN [7]: 1.585 pmol | 13-HODE MEAN [8]: 5.552 pmol | 13-HODE MEDIAN [8]: 5.520 pmol | 11-HETE/AA (ratio) MEAN [9]: 0.151 | 11-HETE/AA (ratio) MEDIAN [9]: 0.132 | Arachidonic Acid MEAN [10]: 836.27 pmol | Arachidonic Acid MEDIAN [10]: 758.43 pmol | PGF2a/AA (ratio) MEAN [11]: 0.030 | PGF2a/AA (ratio) MEDIAN [11]: 0.033 | Linoleic Acid MEAN [12]: 14242 pmol | Linoleic Acid MEDIAN [12]: 10076 pmol | Prostaglandin F2α (PGF2α) MEAN [13]: 0.021 pmol | Prostaglandin F2α (PGF2α) MEDIAN [13]: 0.018 pmol | 11-HETE MEAN [14]: 0.112 pmol | 11-HETE MEDIAN [14]: 0.100 pmol | 5-HETE/AA (ratio) MEAN [15]: 0.170 | 5-HETE/AA (ratio) MEDIAN [15]: 0.082 | 9-HETE/AA (ratio) MEAN [16]: 0.348 | 9-HETE/AA (ratio) MEDIAN [16]: 0.241 | 13-HODE/AA (ratio) MEAN [17]: 0.504 | 13-HODE/AA (ratio) MEDIAN [17]: 0.363 | 5-oxo-ETE (pmol), MEAN (72 Hour Thioglycollate): 0.026 pmol | 5-oxo-ETE (ratio), MEAN (72 Hour Thioglycollate): 0.021 ratio | 8-iso-F2a (pmol), MEAN (72 Hour Thioglycollate): 0.010 pmol | 8-iso-F2a/AA (ratio), MEAN (72 Hour Thioglycollate): 0.016 ratio | 5-oxo-ETE (pmol), MEDIAN (72 Hour Thioglycollate): 0.000 pmol | 5-oxo-ETE (ratio), MEDIAN (72 Hour Thioglycollate): 0.000 ratio | 8-iso-F2a (pmol), MEDIAN (72 Hour Thioglycollate): 0.000 pmol | 8-iso-F2a/AA (ratio), MEDIAN (72 Hour Thioglycollate): 0.000 ratio | 5-oxo-EET (pmol) compared to NS (72 Tg/4 hour Z, 500 mg/kg oral gavage): significant decrease | 8-iso-F2α (pmol) compared to NS [18]: significant decrease | 8-iso-F2α/AA ratio compared to NS [18]: significant decrease | AA (pmol) compared to NS [19]: significantly higher | LA (pmol) compared to NS [19]: significantly higher | 5-HETE/AA ratio compared to NS [20]: significant decrease | 5-oxo-EET (ratio) compared to NS [20]: significant decrease | 9-HETE/AA ratio compared to NS [20]: significant decrease | 9-HODE/LA (ratio) compared to NS [20]: significant decrease | 11-HETE/AA ratio compared to NS [20]: significant decrease | AA (pmol) compared to NS [20]: significantly higher | LA (pmol) compared to NS [20]: significantly higher | PGF2α/AA ratio compared to NS [20]: significant decrease | PGF2a/AA (ratio) MEAN [21]: 0.033 | PGF2a/AA (ratio) MEDIAN [21]: 0.000 | Prostaglandin F2α (PGF2α) MEAN [22]: 0.036 pmol | Prostaglandin F2α (PGF2α) MEDIAN [22]: 0.000 pmol | 13-HODE MEAN [23]: 26.618 pmol | 13-HODE MEDIAN [23]: 23.554 pmol | 11-HETE/AA (ratio) MEAN [24]: 0.219 | 11-HETE/AA (ratio) MEDIAN [24]: 0.218 | 9-HODE/LA (ratio) MEAN [25]: 0.212 | 9-HODE/LA (ratio) MEDIAN [25]: 0.168 | 5-HETE/AA (ratio) MEAN [26]: 0.129 | 5-HETE/AA (ratio) MEDIAN [26]: 0.145 | 13-HODE/AA (ratio) MEAN [27]: 2.976 | 13-HODE/AA (ratio) MEDIAN [27]: 2.848 | 9-HETE/AA (ratio) MEAN [28]: 0.879 | 9-HETE/AA (ratio) MEDIAN [28]: 0.887 | 5-HETE MEAN [29]: 0.096 pmol | 5-HETE MEDIAN [29]: 0.047 pmol | 11-HETE MEAN [29]: 0.121 pmol | 11-HETE MEDIAN [29]: 0.073 pmol | 9-HETE MEAN [30]: 0.510 pmol | 9-HETE MEDIAN [30]: 0.272 pmol | Linoleic Acid MEAN [31]: 8239.5 pmol | Linoleic Acid MEDIAN [31]: 5875.6 pmol | 9-HODE MEAN [32]: 1.791 pmol | 9-HODE MEDIAN [32]: 1.579 pmol | Arachidonic Acid MEAN [33]: 587.46 pmol | Arachidonic Acid MEDIAN [33]: 323.65 pmol | 5-oxo-ETE (pmol), MEAN (Baseline): 0.020 pmol | 5-oxo-ETE (ratio), MEAN (Baseline): 0.033 ratio | 8-iso-F2a (pmol), MEAN (Baseline): 0.156 pmol | 8-iso-F2a/AA (ratio), MEAN (Baseline): 0.307 ratio | 5-oxo-ETE (pmol), MEDIAN (Baseline): 0.000 pmol | 5-oxo-ETE (ratio), MEDIAN (Baseline): 0.000 ratio | 8-iso-F2a (pmol), MEDIAN (Baseline): 0.175 pmol | 8-iso-F2a/AA (ratio), MEDIAN (Baseline): 0.266 ratio
